In patent US8387699B2, “Green coal bed methane fracturing fluid compositions, methods of preparation and methods of use” (Calfrac Well Services Ltd., priority 2008, dated 2013):

System: Vibrio fischeri NRRL-B-11177
Test: Microtox™ toxicity test (light emission of bioluminescent bacterium)
Format: cell-based
Conditions: constituent at the loading given; for EC50 Result (%): normally 50% light reduction over 15 minute at 15°C
Protocol: Under the Microtox™ protocols, the viability of known bacterial cultures is measured within a sample to produce a numeric result as well as a “pass/fail” indication.
The test is performed by rehydrating freeze dried cultures of the organism, supplied as the Microtox™ reagent and determining the initial light output of homogenized bacterial suspensions. Aliquots of osmotically adjusted sample and sample dilutions are added to the bacterial suspension, and light measurements are made at specific intervals (generally at 5 or 15 minutes) after exposure to test samples. The diluent control (blank) is used to correct time-dependant change in light output.
The Microtox™ test endpoint is measured as the effective or inhibitory concentration of a test sample that reduces light emission by a specific amount under defined conditions of time and temperature. Normally, this is expressed as an ECSO(15) or ICSO(15) which is the effective concentration or inhibitory concentration of a sample that reduces light emission of the test organism by 50% over a 15 minute test period at 15°C.
The EC50 or IC50 is calculated by log linear plotting of Concentration (C) vs percent Light Decrease (percent A), or more precisely by plotting Gamma Q (which is the corrected ratio of the amount of light lost to the amount of light remaining) versus Concentration on a log-log graph. Either a hand calculator or computer program data reduction systems may be used to calculate Gamma and the corresponding EC50 or ICSO values.
Thus, the desired loading for a fracturing fluid is determined and the viscosifier diluted to that loading in water and subjected to standardized Microtox™ testing.

Row | Compound | Pass/Fail | EC50 Result (%)
1 | O=CO [0.002 wt % formic acid, formic acid] | Pass (>75% EC50 result is required for pass) | >91
2 | [Cl-].[K+] [4 wt % KCl water, KCl] |  | >91
3 | C[Si]1(C)O[Si](C)(C)O[Si](C)(C)O[Si](C)(C)O1 [octamethylcyclotetrasiloxane] | Pass (>75% EC50 result is required for pass) | 82
4 | hemicellulase enzyme [hemicellulase enzyme (0.02 wt %)] |  | >91
